Test results: patent US20210128609A1, “ONCOLOGY TREATMENTS USING ZINC AGENTS” (XYLONIX IP HOLDINGS PTE. LTD., priority 2018, published 2021)

Legend:
Type in all cases: cell-based
Daudi = assay: CellTiter-Glo cell viability, Daudi
Experimental: (§1) The 50% inhibitory concentration (IC50) was determined in the cancer cell lines using CellTiter-Glo luminescent cell viability assay after incubation with different concentrations of active agents. Each cell line was treated with active Zn(II) agent, a standard chemotherapy drug as reference control, and culture medium as vehicle control. Cell Lines. All cell lines were cultured in media supplemented with 10-15% FBS, at a temperature of 37° C., 5% CO2, and 95% humidity. The reference control drug for all cell lines was cisplatin, to be used for genomic analysis. The cell lines tested, the tissue of origin are shown below in Table 1: Procedure for Determining Half Maximal Inhibition Concentration IC50 • 1. Harvested cells during the logarithmic growth period and count cell number using Count-star. • 2. Adjusted cell concentrations to 4.44×10^4 cells/mL with respective culture medium. • 3. Added 90 μL cell suspensions to two 96-well plates (plates A and B) with the final cell density of 4×10^3 cells/well. (cell concentration was adjusted according to the data base or density optimization assay.) • 4a. Next day: For the plates of TO reading: • 1) Added 10 μL culture medium to each well of plate A for TO reading. • 2) Equilibrated the plate and its content at RT for approximately 30 min. • 3) Added 50 μL CellTiter-Glo reagent to each well. • 4) Mixed content for 5 min on an orbital shaker to induce cell lysis. • 5) Allowed the plate to incubate at RT for 20 min to stabilize luminescent signal. • 6) Recorded luminescence (TO) using EnVision Multi Label Reader. • 4b. For the plates of test reading: • 1) Prepared 10× solution of Zn(II) agent test article. […] The formula for calculating surviving rate is shown below and the absolute IC50 (EC50) was calculated according to the dose-response curve generated by GraphPad Prism 5.0. • 12) The surviving rate (%)=(LumTest article−LumMedium control)/(LumNon-treated−LumMedium control)×100%.

SU-DHL-6 = assay: CellTiter-Glo cell viability, SU-DHL-6
Experimental: as §1

JVM-3 = assay: CellTiter-Glo cell viability, JVM-3
Experimental: as §1

KARPAS-422 = assay: CellTiter-Glo cell viability, KARPAS-422
Experimental: as §1

DU 145 = assay: CellTiter-Glo cell viability, DU 145
Experimental: as §1

Molt-4 = assay: CellTiter-Glo cell viability, Molt-4
Experimental: as §1

Kasumi-1 = assay: CellTiter-Glo cell viability, Kasumi-1
Experimental: as §1

HeLa = assay: CellTiter-Glo cell viability, HeLa
Experimental: (§2) The 50% inhibitory concentration (IC50) was determined in the cancer cell lines using CellTiter-Glo luminescent cell viability assay after incubation with different concentrations of active agents. Each cell line was treated with active Zn(II) agent, a standard chemotherapy drug as reference control, and culture medium as vehicle control. Cell Lines. All cell lines were cultured in media supplemented with 10-15% FBS, at a temperature of 37° C., 5% CO2, and 95% humidity. The reference control drug for all cell lines was cisplatin, to be used for genomic analysis. The cell lines tested, the tissue of origin are shown below in Table 1: Procedure for Determining Half Maximal Inhibition Concentration IC50 • 1. Harvested cells during the logarithmic growth period and count cell number using Count-star. • 2. Adjusted cell concentrations to 4.44×10^4 cells/mL with respective culture medium. • 3. Added 90 μL cell suspensions to two 96-well plates (plates A and B) with the final cell density of 4×10^3 cells/well. (cell concentration was adjusted according to the data base or density optimization assay.) • 4a. […]

WSU-NHL = assay: CellTiter-Glo cell viability, WSU-NHL
Experimental: as §1

MOLM-13 = assay: CellTiter-Glo cell viability, MOLM-13
Experimental: as §1

NCI-H460 = assay: CellTiter-Glo cell viability, NCI-H460
Experimental: as §1

A549 = assay: CellTiter-Glo cell viability, A549
Experimental: as §2

PC-3 = assay: CellTiter-Glo cell viability, PC-3
Experimental: as §1

HCT-116 = assay: CellTiter-Glo cell viability, HCT-116
Experimental: as §1

AsPC-1 = assay: CellTiter-Glo cell viability, AsPC-1
Experimental: as §1

K-562 = assay: CellTiter-Glo cell viability, K-562
Experimental: as §1

MOLP8 = assay: CellTiter-Glo cell viability, MOLP8
Experimental: as §1

PANC-1 = assay: CellTiter-Glo cell viability, PANC-1
Experimental: as §1

Hep G2 = assay: CellTiter-Glo cell viability, Hep G2
Experimental: as §1

OVCAR-3 = assay: CellTiter-Glo cell viability, OVCAR-3
Experimental: as §1

NCI-H446 = assay: CellTiter-Glo cell viability, NCI-H446
Experimental: as §1

NALM-6 = assay: CellTiter-Glo cell viability, NALM-6
Experimental: as §1

Pfeiffer = assay: CellTiter-Glo cell viability, Pfeiffer
Experimental: as §1

U-937 = assay: CellTiter-Glo cell viability, U-937
Experimental: as §1

JJN-3 = assay: CellTiter-Glo cell viability, JJN-3
Experimental: as §1

[1] = 96 h, top conc. 50 μg/mL Zn(II) agent, 100 μM cisplatin

## N.N.[Cl][Pt][Cl] [Cisplatin]
Daudi; 96 h, CellTiter-Glo
  Absolute IC50: 0.11 µg/mL
Daudi; [1]
  % inhibition at top conc.: 99.86%
Daudi; 96 h dose-response fit
  HillSlope: −1.59
SU-DHL-6; 96 h, CellTiter-Glo
  Absolute IC50: 0.38 µg/mL
SU-DHL-6; [1]
  % inhibition at top conc.: 99.99%
SU-DHL-6; 96 h dose-response fit
  HillSlope: −1.11
JVM-3; 96 h, CellTiter-Glo
  Absolute IC50: 0.14 µg/mL
JVM-3; [1]
  % inhibition at top conc.: 99.99%
JVM-3; 96 h dose-response fit
  HillSlope: −1.70
KARPAS-422; 96 h, CellTiter-Glo
  Absolute IC50: 0.37 µg/mL
KARPAS-422; [1]
  % inhibition at top conc.: 99.99%
KARPAS-422; 96 h dose-response fit
  HillSlope: −1.04
DU 145; 96 h, CellTiter-Glo
  Absolute IC50: 0.20 µg/mL
DU 145; [1]
  % inhibition at top conc.: 99.24%
DU 145; 96 h dose-response fit
  HillSlope: −2.37
Molt-4; 96 h, CellTiter-Glo
  Absolute IC50: 0.10 µg/mL
Molt-4; [1]
  % inhibition at top conc.: 99.99%
Molt-4; 96 h dose-response fit
  HillSlope: −2.01
Kasumi-1; 96 h, CellTiter-Glo
  Absolute IC50: 0.71 µg/mL
Kasumi-1; [1]
  % inhibition at top conc.: 99.98%
Kasumi-1; 96 h dose-response fit
  HillSlope: −1.18
HeLa; [1]
  % inhibition at top conc.: 99.91%
HeLa; 96 h dose-response fit
  HillSlope: −1.70
WSU-NHL; 96 h, CellTiter-Glo
  Absolute IC50: 0.06 µg/mL
WSU-NHL; [1]
  % inhibition at top conc.: 99.99%
WSU-NHL; 96 h dose-response fit
  HillSlope: −1.77
MOLM-13; 96 h, CellTiter-Glo
  Absolute IC50: 0.16 µg/mL
MOLM-13; [1]
  % inhibition at top conc.: 99.98%
MOLM-13; 96 h dose-response fit
  HillSlope: −2.08
NCI-H460; 96 h, CellTiter-Glo
  Absolute IC50: 0.15 µg/mL
NCI-H460; [1]
  % inhibition at top conc.: 99.98%
NCI-H460; 96 h dose-response fit
  HillSlope: −1.63
A549; [1]
  % inhibition at top conc.: 97.57%
A549; 96 h dose-response fit
  HillSlope: −0.93
PC-3; 96 h, CellTiter-Glo
  Absolute IC50: 1.13 µg/mL
PC-3; [1]
  % inhibition at top conc.: 93.27%
PC-3; 96 h dose-response fit
  HillSlope: −1.55
HCT-116; 96 h, CellTiter-Glo
  Absolute IC50: 2.89 µg/mL
HCT-116; [1]
  % inhibition at top conc.: 91.19%
HCT-116; 96 h dose-response fit
  HillSlope: −2.03
AsPC-1; 96 h, CellTiter-Glo
  Absolute IC50: 0.67 µg/mL
AsPC-1; [1]
  % inhibition at top conc.: 81.58%
AsPC-1; 96 h dose-response fit
  HillSlope: −1.47
K-562; 96 h, CellTiter-Glo
  Absolute IC50: 1.02 µg/mL
K-562; [1]
  % inhibition at top conc.: 97.71%
K-562; 96 h dose-response fit
  HillSlope: −1.81
MOLP8; 96 h, CellTiter-Glo
  Absolute IC50: 0.16 µg/mL
MOLP8; [1]
  % inhibition at top conc.: 99.98%
MOLP8; 96 h dose-response fit
  HillSlope: −2.16
PANC-1; 96 h, CellTiter-Glo
  Absolute IC50: 1.08 µg/mL
PANC-1; [1]
  % inhibition at top conc.: 96.35%
PANC-1; 96 h dose-response fit
  HillSlope: −0.62
Hep G2; 96 h, CellTiter-Glo
  Absolute IC50: 0.55 µg/mL
Hep G2; [1]
  % inhibition at top conc.: 98.96%
Hep G2; 96 h dose-response fit
  HillSlope: −0.90
OVCAR-3; 96 h, CellTiter-Glo
  Absolute IC50: 1.08 µg/mL
OVCAR-3; [1]
  % inhibition at top conc.: 97.70%
OVCAR-3; 96 h dose-response fit
  HillSlope: −2.96
NCI-H446; 96 h, CellTiter-Glo
  Absolute IC50: 0.35 µg/mL
NCI-H446; [1]
  % inhibition at top conc.: 99.99%
NCI-H446; 96 h dose-response fit
  HillSlope: −0.65
NALM-6; 96 h, CellTiter-Glo
  Absolute IC50: 0.21 µg/mL
NALM-6; [1]
  % inhibition at top conc.: 99.64%
NALM-6; 96 h dose-response fit
  HillSlope: −2.22
Pfeiffer; 96 h, CellTiter-Glo
  Absolute IC50: 0.83 µg/mL
Pfeiffer; [1]
  % inhibition at top conc.: 99.98%
Pfeiffer; 96 h dose-response fit
  HillSlope: −1.79
U-937; 96 h, CellTiter-Glo
  Absolute IC50: 0.37 µg/mL
U-937; [1]
  % inhibition at top conc.: 99.99%
U-937; 96 h dose-response fit
  HillSlope: −4.57
JJN-3; 96 h, CellTiter-Glo
  Absolute IC50: 0.28 µg/mL
JJN-3; [1]
  % inhibition at top conc.: 99.81%
JJN-3; 96 h dose-response fit
  HillSlope: −1.17
